Reference: ChEMBL document CHEMBL3867479, “Multiple biological activities and molecular docking studies of newly synthesized 3-(pyridin-4-yl)-1H-pyrazole-5-carboxamide chalcone hybrids” (Bioorg Med Chem Lett, 2016)
Activity calls are given as the source filed them. No cut-off for these calls is given here.

Key:
Klebsiella pneumoniae = experiment: Antibacterial activity against Klebsiella pneumoniae ATCC 10031 after 24 hrs by well diffusion method; format: functional
Pseudomonas aeruginosa = experiment: Antibacterial activity against Pseudomonas aeruginosa ATCC 10145 after 24 hrs by well diffusion method; format: functional
Streptococcus pyogenes = experiment: Antibacterial activity against Streptococcus pyogenes ATCC 12358 after 24 hrs by well diffusion method; format: functional
Staphylococcus aureus = experiment: Antibacterial activity against Staphylococcus aureus ATCC 11632 after 24 hrs by well diffusion method; format: functional
[1] = Antioxidant activity assessed as DPPH free radical scavenging activity at 100 uM by UV-Vis spectrophotometric analysis; format: functional
[2] = Antioxidant activity assessed as H2O2 free radical scavenging activity at 100 uM by UV-Vis spectrophotometric analysis; format: functional
Erythrocyte = experiment: Antiinflammatory activity in human RBC at 10 to 500 uM by membrane stabilization method; format: functional, cell-based
[3] = Antioxidant activity assessed as anti-inflammatory activity by measuring decrease in bovine serum albumin denaturation at 10 to 500 uM; format: functional

With `O=C(/C=C/c1ccco1)c1cccc(NC(=O)c2cc(-c3ccncc3)n[nH]2)c1` the “inhibition zone (IZ)” value (Klebsiella pneumoniae) was 5.8 mm, the “inhibition zone (IZ)” value (Pseudomonas aeruginosa) was 5.7 mm and the “inhibition zone (IZ)” value (Streptococcus pyogenes) was 13.2 mm. The “inhibition zone (IZ)” value (Staphylococcus aureus) was 10.7 mm, the IC50 [1] was 41.8 µM and the IC50 [2] was 72.3 µM. For the same compound, the Activity (Erythrocyte) was “Active” and the Activity [3] was “Active”.
For `O=C(/C=C/c1cccc2ccccc12)c1cccc(NC(=O)c2cc(-c3ccncc3)n[nH]2)c1`, the “inhibition zone (IZ)” value (Pseudomonas aeruginosa) was 6.3 mm, the “inhibition zone (IZ)” value (Streptococcus pyogenes) was 15.4 mm and the “inhibition zone (IZ)” value (Staphylococcus aureus) was 12.3 mm. The IC50 [1] was 64.5 µM, the IC50 [2] was 72.1 µM and the Activity (Erythrocyte) was “Active”. For the same compound, the Activity [3] was “Active”.
In the case of `O=C(/C=C/c1ccccc1Cl)c1cccc(NC(=O)c2cc(-c3ccncc3)n[nH]2)c1`, the “inhibition zone (IZ)” value (Pseudomonas aeruginosa) is reported as 8.3 mm, the “inhibition zone (IZ)” value (Streptococcus pyogenes) is reported as 7.4 mm and the IC50 [1] is reported as 27.7 µM. For the same compound, the IC50 [2] was 79.8 µM, the Activity (Erythrocyte) was “Active” and the Activity [3] was “Active”.
With `O=C(/C=C/c1ccc([N+](=O)[O-])cc1)c1cccc(NC(=O)c2cc(-c3ccncc3)n[nH]2)c1` the “inhibition zone (IZ)” value (Pseudomonas aeruginosa) was 10.4 mm, the “inhibition zone (IZ)” value (Streptococcus pyogenes) was 19.3 mm and the “inhibition zone (IZ)” value (Staphylococcus aureus) was 20.2 mm. For the same compound, the IC50 [1] was 52.8 µM, the IC50 [2] was 64.6 µM and the Activity (Erythrocyte) was “Active”.
With `CN(C)c1ccc(/C=C/C(=O)c2cccc(NC(=O)c3cc(-c4ccncc4)n[nH]3)c2)cc1` the “inhibition zone (IZ)” value (Klebsiella pneumoniae) was 5.9 mm, the “inhibition zone (IZ)” value (Pseudomonas aeruginosa) was 10.5 mm and the “inhibition zone (IZ)” value (Streptococcus pyogenes) was 12.4 mm. For the same compound, the “inhibition zone (IZ)” value (Staphylococcus aureus) was 7.8 mm, the IC50 [1] was 41.9 µM and the IC50 [2] was 60.9 µM. For the same compound, the Activity (Erythrocyte) was “Active” and the Activity [3] was “Active”.
In the case of `O=C(/C=C/c1ccc(Cl)cc1Cl)c1cccc(NC(=O)c2cc(-c3ccncc3)n[nH]2)c1`, the “inhibition zone (IZ)” value (Klebsiella pneumoniae) is reported as 6.8 mm, the “inhibition zone (IZ)” value (Pseudomonas aeruginosa) is reported as 12.2 mm and the “inhibition zone (IZ)” value (Streptococcus pyogenes) is reported as 15.5 mm. For the same compound, the “inhibition zone (IZ)” value (Staphylococcus aureus) was 17.5 mm, the IC50 [1] was 35 µM and the IC50 [2] was 80.9 µM. The Activity (Erythrocyte) was “Active” and the Activity [3] was “Active”.
With `O=C(/C=C/c1ccccc1)c1cccc(NC(=O)c2cc(-c3ccncc3)n[nH]2)c1` the “inhibition zone (IZ)” value (Pseudomonas aeruginosa) was 9.5 mm, the “inhibition zone (IZ)” value (Streptococcus pyogenes) was 13.2 mm and the “inhibition zone (IZ)” value (Staphylococcus aureus) was 7.5 mm. For the same compound, the IC50 [1] was 67.1 µM, the IC50 [2] was 71.5 µM and the Activity (Erythrocyte) was “Active”.
In the case of `O=C(/C=C/c1ccc(F)cc1)c1cccc(NC(=O)c2cc(-c3ccncc3)n[nH]2)c1`, the “inhibition zone (IZ)” value (Pseudomonas aeruginosa) is reported as 12.1 mm, the “inhibition zone (IZ)” value (Staphylococcus aureus) is reported as 5.4 mm and the IC50 [1] is reported as 56 µM. For the same compound, the IC50 [2] was 58.7 µM and the Activity (Erythrocyte) was “Active”.
For `NC(=O)c1cc(-c2ccncc2)n[nH]1`, the “inhibition zone (IZ)” value (Klebsiella pneumoniae) was 5 mm, the “inhibition zone (IZ)” value (Pseudomonas aeruginosa) was 4 mm and the “inhibition zone (IZ)” value (Streptococcus pyogenes) was 6 mm. The “inhibition zone (IZ)” value (Staphylococcus aureus) was 5 mm, the IC50 [1] was 82.1 µM and the IC50 [2] was 89.1 µM. For the same compound, the Activity (Erythrocyte) was “Active”.
With `Cc1ccc(/C=C/C(=O)c2cccc(NC(=O)c3cc(-c4ccncc4)n[nH]3)c2)cc1` the “inhibition zone (IZ)” value (Pseudomonas aeruginosa) was 7.8 mm, the “inhibition zone (IZ)” value (Streptococcus pyogenes) was 7.9 mm and the “inhibition zone (IZ)” value (Staphylococcus aureus) was 5.9 mm. The IC50 [1] was 69.4 µM, the IC50 [2] was 64.6 µM and the Activity (Erythrocyte) was “Active”.
For `COc1ccccc1/C=C/C(=O)c1cccc(NC(=O)c2cc(-c3ccncc3)n[nH]2)c1`, the “inhibition zone (IZ)” value (Pseudomonas aeruginosa) was 8.8 mm, the “inhibition zone (IZ)” value (Streptococcus pyogenes) was 9.7 mm and the “inhibition zone (IZ)” value (Staphylococcus aureus) was 6.8 mm. For the same compound, the IC50 [1] was 41.7 µM, the IC50 [2] was 56.7 µM and the Activity (Erythrocyte) was “Active”.
With `COc1ccc(/C=C/C(=O)c2cccc(NC(=O)c3cc(-c4ccncc4)n[nH]3)c2)cc1` the “inhibition zone (IZ)” value (Klebsiella pneumoniae) was 5.2 mm, the “inhibition zone (IZ)” value (Pseudomonas aeruginosa) was 12.5 mm and the “inhibition zone (IZ)” value (Streptococcus pyogenes) was 10.6 mm. For the same compound, the “inhibition zone (IZ)” value (Staphylococcus aureus) was 4.5 mm, the IC50 [1] was 38.4 µM and the IC50 [2] was 54.6 µM. The Activity (Erythrocyte) was “Active”.
For `O=C(/C=C/c1ccccc1)c1ccccc1` [CHALCONE], the “inhibition zone (IZ)” value (Klebsiella pneumoniae) was 5 mm, the “inhibition zone (IZ)” value (Pseudomonas aeruginosa) was 7 mm and the “inhibition zone (IZ)” value (Streptococcus pyogenes) was 6.5 mm. For the same compound, the “inhibition zone (IZ)” value (Staphylococcus aureus) was 6 mm, the IC50 [1] was 70.9 µM and the IC50 [2] was 98.1 µM. The Activity (Erythrocyte) was “Active”.
With `O=C(/C=C/c1ccc(Cl)cc1)c1cccc(NC(=O)c2cc(-c3ccncc3)n[nH]2)c1` the “inhibition zone (IZ)” value (Pseudomonas aeruginosa) was 10.2 mm, the “inhibition zone (IZ)” value (Streptococcus pyogenes) was 15.3 mm and the “inhibition zone (IZ)” value (Staphylococcus aureus) was 12.3 mm. For the same compound, the IC50 [1] was 63.9 µM, the IC50 [2] was 78.9 µM and the Activity (Erythrocyte) was “Active”. For the same compound, the Activity [3] was “Active”.
For `O=C(/C=C/c1cccs1)c1cccc(NC(=O)c2cc(-c3ccncc3)n[nH]2)c1`, the “inhibition zone (IZ)” value (Klebsiella pneumoniae) was 7.5 mm, the “inhibition zone (IZ)” value (Pseudomonas aeruginosa) was 8.6 mm and the “inhibition zone (IZ)” value (Streptococcus pyogenes) was 13.5 mm. The “inhibition zone (IZ)” value (Staphylococcus aureus) was 15.4 mm, the IC50 [1] was 27.6 µM and the IC50 [2] was 70 µM. The Activity (Erythrocyte) was “Active” and the Activity [3] was “Active”.
With `COc1cc(/C=C/C(=O)c2cccc(NC(=O)c3cc(-c4ccncc4)n[nH]3)c2)cc(OC)c1OC` the “inhibition zone (IZ)” value (Pseudomonas aeruginosa) was 5.2 mm, the “inhibition zone (IZ)” value (Streptococcus pyogenes) was 11.6 mm and the “inhibition zone (IZ)” value (Staphylococcus aureus) was 12.6 mm. For the same compound, the IC50 [1] was 54.5 µM, the IC50 [2] was 52.9 µM and the Activity (Erythrocyte) was “Active”. The Activity [3] was “Active”.
In the case of `CC(C)c1ccc(/C=C/C(=O)c2cccc(NC(=O)c3cc(-c4ccncc4)n[nH]3)c2)cc1`, the “inhibition zone (IZ)” value (Pseudomonas aeruginosa) is reported as 9.6 mm, the “inhibition zone (IZ)” value (Streptococcus pyogenes) is reported as 9.4 mm and the “inhibition zone (IZ)” value (Staphylococcus aureus) is reported as 6.8 mm. The IC50 [1] was 52.3 µM, the IC50 [2] was 60.2 µM and the Activity (Erythrocyte) was “Active”. For the same compound, the Activity [3] was “Active”.
